ChEMBL document CHEMBL1155997, “Design and synthesis of novel substituted quinazoline derivatives as antileishmanial agents” (Bioorg Med Chem Lett, 2009)
≈ marks a conversion by molar mass, not a printed value. Calls of active or inactive are those of the source. No cut-off for these calls is given here.

Key:
[1] = test system: Leishmania donovani; test: Antileishmanial activity against Leishmania donovani in luciferase-promastigote system at 10 ug/ml; type: functional
[2] = test system: Leishmania donovani; test: Antileishmanial activity against Leishmania donovani in luciferase-amastigote system; type: functional, organism-based

IC50 [2] | Compound | inhibition at 10 µg/mL [1] | inhibition [1]
– | Clc1ccc(-c2nc(N3CCOCC3)nc3c2CCc2ccccc2-3)cc1 | 74.8% | –
– | c1ccc(-c2nc(N3CCCC3)nc3c2CCc2ccccc2-3)cc1 | 74.7% | –
– | Clc1ccc(-c2nc(N3CCCC3)nc3c2CCc2ccccc2-3)cc1 | 58.3% | –
– | Clc1ccc(-c2nc(N3CCOCC3)nc3c2CCc2ccccc2-3)c(Cl)c1 | 93.1% | –
– | Clc1ccc(-c2nc(N3CCN(c4ccccn4)CC3)nc3c2CCc2ccccc2-3)c(Cl)c1 | 15.7% | –
– | Clc1ccc(C2NC(N3CCCCC3)=NC3=C2CCc2ccccc23)cc1 (configuration not stated) | 99.6% | –
– | Clc1ccc(-c2nc(N3CCCCC3)nc3c2CCc2ccccc2-3)c(Cl)c1 | 95.2% | –
– | Fc1ccc(-c2nc(N3CCCCC3)nc3c2CCc2ccccc2-3)cc1 | 47.8% | –
– | Clc1ccc(-c2nc(N3CCCCC3)nc3c2CCc2ccccc2-3)cc1 | 53.5% | –
3.22 µg/mL (≈ 8.91 µM) | Fc1ccc(C2NC(N3CCCCC3)=NC3=C2CCc2ccccc23)cc1 (configuration not stated) | 99.9% | –
8.95 µg/mL (≈ 24.6 µM) | Clc1ccc(C2NC(N3CCCC3)=NC3=C2CCc2ccccc23)cc1 (configuration not stated) | 96.3% | –
– | Clc1ccc(C2NC(N3CCCC3)=NC3=C2CCc2ccccc23)c(Cl)c1 (configuration not stated) | 99.8% | –
3.58 µg/mL (≈ 8.14 µM) | Fc1ccc(C2NC(N3CCN(c4ccccn4)CC3)=NC3=C2CCc2ccccc23)cc1 (configuration not stated) | 68.2% | –
2.65 µg/mL (≈ 5.81 µM) | Clc1ccc(C2NC(N3CCN(c4ccccn4)CC3)=NC3=C2CCc2ccccc23)cc1 (configuration not stated) | 99.9% | –
– | Fc1ccc(-c2nc(N3CCOCC3)nc3c2CCc2ccccc2-3)cc1 | 64.8% | –
4.07 µg/mL (≈ 11.7 µM) | Fc1ccc(C2NC(N3CCCC3)=NC3=C2CCc2ccccc23)cc1 (configuration not stated) | 99.9% | –
– | Fc1ccc(-c2nc(N3CCN(c4ccccn4)CC3)nc3c2CCc2ccccc2-3)cc1 | 44.9% | –

IC50 [2] | Compound | inhibition at 10 µg/mL [1] | inhibition [1]
– | N=C(N)c1ccc(OCCCCCOc2ccc(C(=N)N)cc2)cc1 [PENTAMIDINE] | 100% | –
– | c1ccc(C2NC(N3CCCC3)=NC3=C2CCc2ccccc23)cc1 (configuration not stated) | 99.8% | –
– | Clc1ccc(C2NC(N3CCCCC3)=NC3=C2CCc2ccccc23)c(Cl)c1 (configuration not stated) | 99.7% | –
– | c1ccc(C2NC(N3CCN(c4ccccn4)CC3)=NC3=C2CCc2ccccc23)cc1 (configuration not stated) | 99.4% | –
– | D-gluconic acid, 2,4:2',4'-O-[oxybis-oxidostibylidyne]bis-, trisodium salt, nonahydrate | – | inactive
– | Clc1ccc(C2NC(N3CCOCC3)=NC3=C2CCc2ccccc23)c(Cl)c1 (configuration not stated) | 99.7% | –
– | Fc1ccc(-c2nc(N3CCCC3)nc3c2CCc2ccccc2-3)cc1 | 61.8% | –
– | c1ccc(-c2nc(N3CCOCC3)nc3c2CCc2ccccc2-3)cc1 | 71.5% | –
– | Clc1ccc(-c2nc(N3CCCC3)nc3c2CCc2ccccc2-3)c(Cl)c1 | 77.9% | –
– | c1ccc(C2NC(N3CCOCC3)=NC3=C2CCc2ccccc23)cc1 (configuration not stated) | 99.9% | –
3.48 µg/mL (≈ 10.1 µM) | c1ccc(C2NC(N3CCCCC3)=NC3=C2CCc2ccccc23)cc1 (configuration not stated) | 99.8% | –
– | c1ccc(-c2nc(N3CCCCC3)nc3c2CCc2ccccc2-3)cc1 | 91.8% | –
5.2 µg/mL (≈ 13.7 µM) | Clc1ccc(C2NC(N3CCOCC3)=NC3=C2CCc2ccccc23)cc1 (configuration not stated) | 98.7% | –
– | Fc1ccc(C2NC(N3CCOCC3)=NC3=C2CCc2ccccc23)cc1 (configuration not stated) | 99.6% | –
6.33 µg/mL (≈ 12.9 µM) | Clc1ccc(C2NC(N3CCN(c4ccccn4)CC3)=NC3=C2CCc2ccccc23)c(Cl)c1 (configuration not stated) | 99.9% | –
– | c1ccc(-c2nc(N3CCN(c4ccccn4)CC3)nc3c2CCc2ccccc2-3)cc1 | 62.2% | –
– | Clc1ccc(-c2nc(N3CCN(c4ccccn4)CC3)nc3c2CCc2ccccc2-3)cc1 | 51.4% | –
